The test system of assay [1] is HEK293 cells (ATCC CRL-1573). Kind of assay: Cellular growth inhibition assay, HEK293 cells (Example 16). In kind it is cell-based. Conditions: Homo sapiens, 72 hours, CellTiter-Glo 2.0.
Assay [2] concerns the target T1, GSPT1 (Homo sapiens, UniProt P15170+Q96SW2).
T1 construct: host or cells: HEK293 LgBiT / GSPT1 HiBiT CRISPR knock-in
Kind of assay: GSPT1 HiBiT degradation assay. Format: cell-based. Conditions: HEK293 LgBiT GSPT1 HiBiT cells, 6 hours. Put shortly:
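HEK293 CRISPR knock-in cells expressing LgBiT and GSPT1-HiBiT were seeded at 1000 cells/well and, after 18-24 h, treated with titrated compound plus endurazine (0.5× final) at 37 °C. Luminescence read after 6 h; loss of signal reflects GSPT1 degradation, giving DC50.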

Assay [3] deals with KRAS G12C (Homo sapiens, UniProt P01116, G12C). The assay can be described thus: KRAS G12C nucleotide exchange assay (SOS1-mediated, HTRF). Format: biochemical. On the set-up: GST-tagged KRAS G12C (amino acids 2-169). Conditions: 1 hr pre-incubation. Put shortly:
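GST-tagged KRAS G12C (aa 2-169, 30 nM) pre-incubated 1 h at RT with compound (10-point, 3-fold dilution from 10 μM), then SOS1 (aa 564-1049, 20 nM) and GTP-DY-647P1 (0.15 μM) added. Exchange read by HTRF with anti-GST Tb antibody. IC50 from sigmoidal variable-slope fit.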
Background: TR-FRET usually uses a lanthanide donor and a delayed reading to cut background.

The subject of assay [4] is HeLa cells (ATCC CCL-2). Kind of assay: Cellular growth inhibition assay, HeLa cells (Example 16). In kind it is cell-based. Conditions: Homo sapiens, 72 hours, CellTiter-Glo 2.0. (In ATP-based viability assays light output follows the ATP content of the culture.)

The record followed here is patent publication US20240408093A1, “HETEROBIFUNCTIONAL COMPOUNDS AND THEIR USE IN TREATING DISEASE” (HALDA THERAPEUTICS OPCO, INC., priority 2022, published 2024).

What is called GI50 is the concentration giving 50% growth inhibition. A lower GI50 goes with greater sensitivity of the cells. For orientation: DC50 means the concentration at which degradation of the target reaches its halfway point. In general, IC50 refers to the concentration at which inhibition is half-maximal.

T1 sequence (P15170 whole entry): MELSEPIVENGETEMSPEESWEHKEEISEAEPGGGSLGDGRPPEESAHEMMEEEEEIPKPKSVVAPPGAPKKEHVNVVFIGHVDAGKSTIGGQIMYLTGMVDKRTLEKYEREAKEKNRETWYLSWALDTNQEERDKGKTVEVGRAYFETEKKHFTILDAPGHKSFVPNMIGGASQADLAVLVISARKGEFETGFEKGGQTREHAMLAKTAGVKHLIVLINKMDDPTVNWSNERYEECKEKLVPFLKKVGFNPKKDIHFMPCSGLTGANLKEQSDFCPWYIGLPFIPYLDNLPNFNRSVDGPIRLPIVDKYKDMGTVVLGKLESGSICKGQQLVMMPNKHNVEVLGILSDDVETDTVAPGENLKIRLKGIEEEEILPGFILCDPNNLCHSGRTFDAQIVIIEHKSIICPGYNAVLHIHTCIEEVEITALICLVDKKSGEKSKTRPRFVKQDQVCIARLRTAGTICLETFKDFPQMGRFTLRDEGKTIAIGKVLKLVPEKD
T1 sequence (Q96SW2 whole entry): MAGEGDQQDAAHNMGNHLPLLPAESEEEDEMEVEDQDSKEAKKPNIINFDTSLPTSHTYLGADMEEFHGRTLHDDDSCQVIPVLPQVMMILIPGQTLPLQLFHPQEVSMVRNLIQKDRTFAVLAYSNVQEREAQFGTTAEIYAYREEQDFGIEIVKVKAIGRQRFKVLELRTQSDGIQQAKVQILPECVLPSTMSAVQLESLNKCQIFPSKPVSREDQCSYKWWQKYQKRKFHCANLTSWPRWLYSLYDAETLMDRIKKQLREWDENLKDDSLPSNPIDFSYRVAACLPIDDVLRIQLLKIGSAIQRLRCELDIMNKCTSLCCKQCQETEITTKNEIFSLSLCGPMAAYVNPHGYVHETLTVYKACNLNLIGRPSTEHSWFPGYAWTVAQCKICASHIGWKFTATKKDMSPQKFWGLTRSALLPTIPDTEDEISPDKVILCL
T1 sequence (Q16531 whole entry partner): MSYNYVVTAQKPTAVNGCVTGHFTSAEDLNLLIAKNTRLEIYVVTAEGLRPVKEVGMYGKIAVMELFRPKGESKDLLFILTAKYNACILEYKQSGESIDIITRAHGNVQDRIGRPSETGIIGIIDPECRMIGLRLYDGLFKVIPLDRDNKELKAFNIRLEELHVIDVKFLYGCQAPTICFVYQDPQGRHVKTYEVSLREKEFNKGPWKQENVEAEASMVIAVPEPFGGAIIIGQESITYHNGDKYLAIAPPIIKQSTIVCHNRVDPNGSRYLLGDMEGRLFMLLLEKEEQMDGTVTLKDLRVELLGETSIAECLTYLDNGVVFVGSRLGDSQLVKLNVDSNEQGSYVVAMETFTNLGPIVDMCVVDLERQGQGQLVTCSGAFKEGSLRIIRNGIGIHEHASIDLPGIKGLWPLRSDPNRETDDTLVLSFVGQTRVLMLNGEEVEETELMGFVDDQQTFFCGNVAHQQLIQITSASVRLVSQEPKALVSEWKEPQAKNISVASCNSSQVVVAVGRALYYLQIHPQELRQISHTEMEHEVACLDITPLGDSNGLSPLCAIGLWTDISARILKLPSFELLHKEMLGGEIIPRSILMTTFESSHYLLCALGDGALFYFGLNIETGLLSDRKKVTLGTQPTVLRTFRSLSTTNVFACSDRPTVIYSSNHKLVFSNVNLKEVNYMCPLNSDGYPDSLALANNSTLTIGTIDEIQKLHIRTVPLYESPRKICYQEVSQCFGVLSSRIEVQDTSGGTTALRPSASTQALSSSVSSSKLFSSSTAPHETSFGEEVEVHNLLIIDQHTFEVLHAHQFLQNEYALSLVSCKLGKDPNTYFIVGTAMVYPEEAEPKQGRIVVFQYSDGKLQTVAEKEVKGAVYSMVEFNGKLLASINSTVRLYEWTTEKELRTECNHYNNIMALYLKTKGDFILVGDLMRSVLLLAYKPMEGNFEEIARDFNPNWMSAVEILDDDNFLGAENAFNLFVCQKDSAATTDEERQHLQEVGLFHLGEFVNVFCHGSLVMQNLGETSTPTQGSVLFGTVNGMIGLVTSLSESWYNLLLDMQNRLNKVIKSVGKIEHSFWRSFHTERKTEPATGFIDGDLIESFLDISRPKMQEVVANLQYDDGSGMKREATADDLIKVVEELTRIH
Sequence of KRAS G12C (P01116 2-169 isoform P01116-2 G12C): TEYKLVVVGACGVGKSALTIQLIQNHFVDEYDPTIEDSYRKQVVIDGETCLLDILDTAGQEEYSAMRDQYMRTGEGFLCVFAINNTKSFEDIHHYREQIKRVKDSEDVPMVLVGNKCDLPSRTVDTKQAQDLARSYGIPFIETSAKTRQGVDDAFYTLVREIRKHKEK

Regarding `C=C(COc1cccc(NC(=O)NCc2ccc3c(c2)CN(C2CCC(=O)NC2=O)C3=O)c1)C(=O)N1CCN(c2nc(OC[C@@H]3CCCN3C)nc3c2CCN(c2cccc4cccc(Cl)c24)C3)C[C@@H]1CC#N` (some centres unmarked) [Compound I-49], the GI50 in assay [1] and in assay [4] was over 10000 nM in each case. Further, in assay [2], the half-maximal degradation concentration (DC50) fell in the range of 500 to 2500 nM. In assay [3], this molecule yielded an IC50 of under 100 nM.
For the molecule `C=C(COc1cc(NC(=O)NCc2ccc3c(c2)CN(C2CCC(=O)NC2=O)C3=O)cc(OC)c1)C(=O)N1CCN(c2nc(OC[C@@H]3CCCN3C)nc3c2CCN(c2cccc4cccc(Cl)c24)C3)C[C@@H]1CC#N` (some centres unmarked) [Compound I-50], the 50% growth inhibitory concentration (GI50) in assay [1] and in assay [4] was over 10000 nM in each case. For the same molecule, the 50% degradation concentration (DC50) in assay [2] is over 2500 nM. This molecule registered a concentration for half-maximal inhibition (IC50) in assay [3] of under 100 nM.
On to `C=C(COc1ccc(Cl)cc1NC(=O)NCc1ccc2c(c1)CN(C1CCC(=O)NC1=O)C2=O)C(=O)N1CCN(c2nc(OC[C@@H]3CCCN3C)nc3c2CCN(c2cccc4cccc(Cl)c24)C3)C[C@@H]1CC#N` (some centres unmarked) [Compound I-52], for which the results for the GI50 in assay [1] and in assay [4] were 500 to 1500 nM and 1500 to 10000 nM, respectively. The molecule also gave a DC50 in assay [2] of 500 to 2500 nM. In addition, the IC50 in assay [3] was under 100 nM.
On to `C=C(COc1cc(Cl)cc(NC(=O)NCc2ccc3c(c2)CN(C2CCC(=O)NC2=O)C3=O)c1)C(=O)N1CC2(CC(n3nc(-c4ccc5c(cnn5C)c4)c(-c4c(Cl)c(C)cc5[nH]ncc45)c3C)C2)C1` (centres unmarked) [Compound I-56], for which the 50% growth inhibitory concentration (GI50) is 500 to 1500 nM in assay [1] and under 500 nM in assay [4]. Moreover, in assay [2], the half-maximal degradation concentration (DC50) is over 2500 nM. Also, the IC50 in assay [3] fell in the range of 100 to 5000 nM.
The matching figures for `C=C(CN(C)c1cccc(NC(=O)NCc2ccc3c(c2)CN(C2CCC(=O)NC2=O)C3=O)c1)C(=O)N1CCN(c2nc(OC[C@@H]3CCCN3C)nc3c2CCN(c2cccc4cccc(Cl)c24)C3)C[C@@H]1CC#N` (some centres unmarked) [Compound I-58]: 1500 to 10000 nM, 1500 to 10000 nM, over 2500 nM and 5000 to 10000 nM.
The matching figures for `C=C(COc1cc(F)c(F)cc1NC(=O)NCc1ccc2c(c1)CN(C1CCC(=O)NC1=O)C2=O)C(=O)N1CCN(c2nc(OC[C@@H]3CCCN3C)nc3c2CCN(c2cccc4cccc(Cl)c24)C3)C[C@@H]1CC#N` (some centres unmarked) [Compound I-62]: over 10000 nM, over 10000 nM, 500 to 2500 nM and under 100 nM.
With `C=C(COc1ccccc1CNC(=O)NCc1ccc2c(c1)CN(C1CCC(=O)NC1=O)C2=O)C(=O)N1CCN(c2nc(OC[C@@H]3CCCN3C)nc3c2CCN(c2cccc4cccc(Cl)c24)C3)C[C@@H]1CC#N` (some centres unmarked) [Compound I-63], the GI50 in assay [1] and in assay [4] was over 10000 nM each time. Further, in assay [2], the DC50 was over 2500 nM. In addition, the half-maximal inhibitory concentration (IC50) in assay [3] was under 100 nM.
`C=C(COc1cc(Cl)cc(NC(=O)NCc2cc3c(cc2F)C(=O)N(C2CCC(=O)NC2=O)C3)c1)C(=O)N1CCN(c2nc(OC[C@@H]3CCCN3C)nc3c2CCN(c2cccc4cccc(Cl)c24)C3)C[C@@H]1CC#N` (some centres unmarked) [Compound I-64]: the 50% growth inhibitory concentration (GI50) in assay [1] was 500 to 1500 nM; in assay [4] it was over 10000 nM. For the same molecule, the DC50 in assay [2] was in the range of 500 to 2500 nM. The half-maximal inhibitory concentration (IC50) in assay [3] is under 100 nM.
The matching figures for `C=C(COc1cc(Cl)c(OC)cc1NC(=O)NCc1ccc2c(c1)CN(C1CCC(=O)NC1=O)C2=O)C(=O)N1CC2(CC(n3nc(-c4ccc5c(cnn5C)c4)c(-c4c(Cl)c(C)cc5[nH]ncc45)c3C)C2)C1` (centres unmarked) [Compound I-66]: under 500 nM, 500 to 1500 nM, 50 to 500 nM and 100 to 5000 nM.
The matching figures for `C=C(COc1cc(NC(=O)NCc2ccc3c(c2)CN(C2CCC(=O)NC2=O)C3=O)cc(OC)c1)C(=O)N1CC2(CC(n3nc(-c4ccc5c(cnn5C)c4)c(-c4c(Cl)c(C)cc5[nH]ncc45)c3C)C2)C1` (centres unmarked) [Compound I-67]: over 10000 nM, over 10000 nM, 500 to 2500 nM and 100 to 5000 nM.
The matching figures for `C=C(COc1cc(NC(=O)NCc2ccc3c(c2F)CN(C2CCC(=O)NC2=O)C3=O)cc(C(F)(F)F)c1)C(=O)N1CC2(CC(n3nc(-c4ccc5c(cnn5C)c4)c(-c4c(Cl)c(C)cc5[nH]ncc45)c3C)C2)C1` (centres unmarked) [Compound I-68]: under 500 nM, over 10000 nM, over 2500 nM and 100 to 5000 nM.
For the molecule `C=C(COC(=O)c1c(C)csc1NC(=O)NCc1ccc2c(c1)CN(C1CCC(=O)NC1=O)C2=O)C(=O)N1CCN(c2nc(OC[C@@H]3CCCN3C)nc3c2CCN(c2cccc4cccc(Cl)c24)C3)C[C@@H]1CC#N` (stereo partly drawn) [Compound I-72, 2-[(2S)-4-[7-(8-chloro-1-naphthyl)-2-[[(2S)-1-methylpyrrolidin-2-yl]methoxy]-6,8-dihydro-5H-pyrido[3,4-d]pyrimidin-4-yl]-2-(cyanomethyl)piperazine-1-carbonyl]allyl 2-[[2-(2,6-dioxo-3-piperidyl)-1-oxo-isoindolin-5-yl]methylcarbamoylamino]-4-methyl-thiophene-3-carboxylate], the concentration for 50% growth inhibition (GI50) in assay [1] and in assay [4] was 1500 to 10000 nM in each case. Moreover, in assay [2], the 50% degradation concentration (DC50) is over 2500 nM. The molecule also came in with an IC50 in assay [3] of under 100 nM.
Take `C=C(COC(=O)NCc1cc(Cl)cc(NC(=O)NCc2ccc3c(c2)CN(C2CCC(=O)NC2=O)C3=O)c1)C(=O)N1CCN(c2nc(OC[C@@H]3CCCN3C)nc3c2CCN(c2cccc4cccc(Cl)c24)C3)C[C@@H]1CC#N` (some centres unmarked) [Compound I-73]: the GI50 in assay [1] was under 500 nM; in assay [4] it was 1500 to 10000 nM. In addition, the half-maximal degradation concentration (DC50) in assay [2] was 50 to 500 nM. In assay [3], this molecule registered an IC50 of under 100 nM.
Regarding `C=C(COC(=O)NCCCc1cc(Cl)cc(NC(=O)NCc2ccc3c(c2)CN(C2CCC(=O)NC2=O)C3=O)c1)C(=O)N1CCN(c2nc(OC[C@@H]3CCCN3C)nc3c2CCN(c2cccc4cccc(Cl)c24)C3)C[C@@H]1CC#N` (some centres unmarked) [Compound I-74], the GI50 in assay [1] is 500 to 1500 nM; in assay [4], 1500 to 10000 nM. The same molecule came in with a half-maximal degradation concentration (DC50) in assay [2] of 500 to 2500 nM. Moreover, the IC50 in assay [3] is under 100 nM.
The matching figures for `C=C(COc1cc(NC(=O)NCc2ccc3c(c2)CN(C2CCC(=O)NC2=O)C3=O)cc(F)c1F)C(=O)N1CCN(c2nc(OC[C@@H]3CCCN3C)nc3c2CCN(c2cccc4cccc(Cl)c24)C3)C[C@@H]1CC#N` (some centres unmarked) [Compound I-75]: over 10000 nM, over 10000 nM, over 2500 nM and under 100 nM.
The matching figures for `C=C(COc1ccc(Cl)cc1NC(=O)NCc1ccc2c(c1)CN(C1CCC(=O)NC1=O)C2=O)C(=O)N1CC2(CC(n3nc(-c4ccc5c(cnn5C)c4)c(-c4c(Cl)c(C)cc5[nH]ncc45)c3C)C2)C1` (centres unmarked) [Compound I-76]: under 500 nM, 500 to 1500 nM, 50 to 500 nM and 100 to 5000 nM.
As to `C=C(COc1cc(NC(=O)NCc2ccc3c(c2)CN(C2CCC(=O)NC2=O)C3=O)cc(C(F)(F)F)c1)C(=O)N1CC2(CC(n3nc(-c4ccc5c(cnn5C)c4)c(-c4c(Cl)c(C)cc5[nH]ncc45)c3C)C2)C1` (centres unmarked) [Compound I-77], the 50% growth inhibitory concentration (GI50) in assay [1] was 500 to 1500 nM; in assay [4], over 10000 nM. The molecule also came in with a DC50 in assay [2] of 50 to 500 nM. Further, in assay [3], the IC50 lay within 100 to 5000 nM.
Turning to `C=C(COc1cc(Cl)cc(NC(=O)NCc2ccc3c(c2)CN(C2CCC(=O)NC2=O)C3=O)c1F)C(=O)N1CCN(c2nc(OC[C@@H]3CCCN3C)nc3c2CCN(c2cccc4cccc(Cl)c24)C3)C[C@@H]1CC#N` (some centres unmarked) [Compound I-84], the GI50 in assay [1] was under 500 nM; in assay [4], 1500 to 10000 nM. In assay [2], the DC50 lay within 50 to 500 nM. In assay [3], this molecule displayed an IC50 of over 10000 nM.
The matching figures for `C=C(COc1cc(NC(=O)NCc2ccc3c(c2F)CN(C2CCC(=O)NC2=O)C3=O)cc(C(F)(F)F)c1)C(=O)N1CCN(c2nc(OC[C@@H]3CCCN3C)nc3c2CCN(c2cccc4cccc(Cl)c24)C3)C[C@@H]1CC#N` (some centres unmarked) [Compound I-85]: 1500 to 10000 nM, over 10000 nM, 50 to 500 nM and under 100 nM.
The matching figures for `C=C(COc1c(Cl)cccc1NC(=O)NCc1ccc2c(c1)CN(C1CCC(=O)NC1=O)C2=O)C(=O)N1CCN(c2nc(OC[C@@H]3CCCN3C)nc3c2CCN(c2cccc4cccc(Cl)c24)C3)C[C@@H]1CC#N` (some centres unmarked) [Compound I-86]: under 500 nM, 500 to 1500 nM, under 50 nM and under 100 nM.
Regarding `C=C(COc1cc(C(F)(F)F)c(Cl)cc1NC(=O)NCc1ccc2c(c1)CN(C1CCC(=O)NC1=O)C2=O)C(=O)N1CCN(c2nc(OC[C@@H]3CCCN3C)nc3c2CCN(c2cccc4cccc(Cl)c24)C3)C[C@@H]1CC#N` (some centres unmarked) [Compound I-88], the results for the 50% growth inhibitory concentration (GI50) in assay [1] and in assay [4] were under 500 nM and 500 to 1500 nM, respectively. In addition, the half-maximal degradation concentration (DC50) in assay [2] is under 50 nM. The molecule further gave an IC50 in assay [3] of under 100 nM.
The matching figures for `C=C(COc1cc(NC(=O)NCc2ccc3c(c2)CN(C2CCC(=O)NC2=O)C3=O)ccc1OC)C(=O)N1CCN(c2nc(OC[C@@H]3CCCN3C)nc3c2CCN(c2cccc4cccc(Cl)c24)C3)C[C@@H]1CC#N` (some centres unmarked) [Compound I-89]: over 10000 nM, over 10000 nM, 500 to 2500 nM and under 100 nM.
The matching figures for `C=C(COc1c(CNC(=O)Nc2ccc(C)c(Cl)c2)ccc2c1CN(C1CCC(=O)NC1=O)C2=O)C(=O)N1CCN(c2nc(OC[C@@H]3CCCN3C)nc3c2CCN(c2cccc4cccc(Cl)c24)C3)C[C@@H]1CC#N` (some centres unmarked) [Compound I-90]: under 500 nM, over 10000 nM, 50 to 500 nM and under 100 nM.
